Measured values as given in patent US10067124B2, “Immunoassay method for pro-gastrin-releasing peptide” (Abbott Laboratories, priority 2006, dated 2018).

Test system: serine protease such as thrombin
Experiment: Stabilization of ProGRP in serum by addition of PMSF (Example 2)
Format: biochemical
Conditions: PMSF added to serum, room temperature storage
Experimental: After PMSF (manufactured by Sigma-Aldrich Co.) was added to serum, ProGRP 31-98 antigen amino no acid synthesized by the Fmoc method was added thereto. After the mixture was stored at room temperature, the concentration of ProGRP was assayed using the Architect ProGRP. […] PMSF is a substance that is used to inactivate the activity of an enzyme of a serine protease such as thrombin and the presence of a protease such as thrombin can be considered to be the cause of ProGRP inactivation.

O=S(=O)(F)Cc1ccccc1 [PMSF, Phenylmethanesulfonyl Fluoride]
effect on decrease in the activity of ProGRP in serum: significantly suppressed
